Test results: US6808892B1, “Method for identifying inhibitors of IPC synthase” (AstraZeneca AB, priority 1998, dated 2004)
*1 amine or outer side, *2 acyl side, *3 side chain or, on linkers, in order; H or OH if unused. Where a SMILES comes first, the peptide text is derived from it. [ ]: non-standard residue; d: D form. X1 = CC[C@@H](C)[C@@H](O[*:1])C(=O)[*:2]; NMeVal(β-OH) = CN[C@H](C(=O)O)C(C)(C)O; NMeF = CN[C@@H](Cc1ccccc1)C(=O)O; aIle = CC[C@@H](C)[C@H](N)C(=O)O; NMeV = CN[C@H](C(=O)O)C(C)C

Tested on: strain lcb1::kanMX, pNS149
Experiment: IPC synthase screen: growth inhibition of the engineered yeast strain with or without added phytosphingosine
Format: cell-based, S. cerevisiae
Description: Therefore in a first aspect of the present invention we provide a screening assay for identifying a selective IPC synthase inhibitor which assay comprises contacting a test compound with engineered cells whose capability to synthesize sphingolipids depends on the addition of exogenous phytosphingosine and which are capable of sustained growth via compensatory phospholipids, adding phytosphingosine, and determining IPC synthase inhibition by the test compound by reference to any cell growth inhibition.
The utility of the lcb1::kanMX pNS149 strain to identify inhibitors of IPC synthase was evaluated using aureobasidinA as a test compound. The lcb1::kanMX pNS149 strain is a further independent aspect of the invention.
Inhibition of growth by aureobasidinA in strain lcb1::kanMX, pNS149 with added phytosphingosine.
Inhibition of growth by aureobasidinA in strain lcb1::kanMX, pNS149 without added phytosphingosine.

In the case of `CC[C@@H](C)[C@@H]1NC(=O)[C@@H]2CCCN2C(=O)[C@H](Cc2ccccc2)N(C)C(=O)[C@H](Cc2ccccc2)NC(=O)[C@H](C(C)C)N(C)C(=O)[C@@H]([C@H](C)CC)OC(=O)[C@H](C(C)(C)O)N(C)C(=O)[C@H](CC(C)C)NC(=O)[C@H](C(C)C)N(C)C1=O` [aureobasidinA] (cyclo(F[NMeF]P[aIle][NMeV]L[NMeVal(β-OH)][X1][NMeV])), the Inhibition of growth (pNS149, with added phytosphingosine (FIG. 1a)) is reported as “very pronounced” and the Inhibition of growth (pNS149, without added phytosphingosine (FIG. 1b)) is reported as “absent”.
